# How the values were obtained:
# corticosterone = assay: Level of corticosterone (COR) in serum of mice after intraperitoneal injection (ELISA); assay type: in vivo, BALb/c mice; conditions: SPAM1 10, 100 and 1000 μmol/kg intraperitoneal; blood 1 h after injection; vs normal saline control
# Experimental: Forty BALb/c mice (SPF grade, 8-10 weeks old, weighing 22-27 g, half female and half male) were randomly divided into following […], with 10 mice in each group: 1) SPAM1 low-dose group, intraperitoneal injection, 10 μmol/kg; 2) SPAM1 medium-dose group, intraperitoneal injection, 100 μmol/kg; 3) SPAM1 high-dose group, intraperitoneal injection, 1000 μmol/kg; 4) normal control group, injected with normal saline intraperitoneally; 1 h after the injection, blood was collected from the orbit, and the level of COR in serum was measured by the solid phase sandwich enzyme-linked immunosorbent assay (ELISA).
# LPS-induced sepsis model = assay: LPS-induced sepsis model, survival; assay type: in vivo, BALB/c mice; conditions: SPAM1 10 or 100 μmol/kg i.p. 30 min before 15 mg/kg LPS at the tail vein; survival recorded for 8 days
# Experimental: An LPS-induced sepsis model was used. Forty BALB/c mice (SPF grade, half male and half female, 8-10 weeks old, weighing 22-27 g) were randomly divided into following 4 groups, with 10 mice in each group: 1) sepsis model group, injected with normal saline intraperitoneally, and 30 min later, injected with 15 mg/kg LPS at the tail vein; 2) SPAM1 low-dose treatment group, injected with low-dose SPAM1 (10 μmol/kg) intraperitoneally, and 30 min later, injected with 15 mg/kg LPS at the tail vein; 3) SPAM1 high-dose treatment group, injected with high-dose SPAM1 (100 μmol/kg) intraperitoneally, and 30 min later, injected with 15 mg/kg LPS at the tail vein; and 4) normal control group, injected with normal saline intraperitoneally, and 30 min later, injected with normal saline at the tail vein; the survival of mice was observed every 24 h, and the survival rate of each group was recorded for 8 days.
# PAC1-R [1] = assay: PAC1-R expression in Neuro2a cells, western blot with anti-PAC1-R (C-terminal) antibody; assay type: cell-based, Mouse; conditions: SPAM1 at 1 μM, 10 μM and 100 μM, incubated 1 h
# Experimental: Mouse nerve cells Neuro2a naturally expressing the PAC1-R were cultured until the fusion rate was more than 80%, added with SPAM1 at 1 μM, 10 μM and 100 μM, and disrupted after being incubated for 1 h. The supernatant of the whole cell lysate was subjected to SDS-PAGE and the western blot assay using the anti-PAC1-R (C-terminal) antibody.
# [2] = system: dexamethasone-induced thymus decline model; assay: Dexamethasone-induced thymus decline model, thymus index; assay type: in vivo, BALB/c mice; conditions: dexamethasone 25 mg/kg/d*2d i.p.; SPAM1 10 or 100 μmol/kg/d*2d i.p. at the same time
# Experimental: A dexamethasone-induced thymus decline model was used. Forty BALB/c mice (SPF grade, half male and half female, 8-10 weeks old, weighing 22-27 g) were randomly divided into following 4 groups, with 10 mice in each group: 1) aging model group, injected with dexamethasone (25 mg/kg/d*2d) intraperitoneally; 2) SPAM1 low-dose treatment group, injected with dexamethasone as in group 1), and injected with SPAM1 at a low dose (10 μmol/kg/d*2d) intraperitoneally at the same time; 3) SPAM1 high-dose treatment group, injected with dexamethasone as in group 1), and injected with SPAM1 at a high dose (100 μmol/kg/d*2d) intraperitoneally at the same time; and 4) normal control group, injected with normal saline intraperitoneally instead of dexamethasone and SPAM1; 24 h after the completion of the final injection, the mice were weighed and sacrificed by cervical dislocation method, the thymus of the mice was weighed, and the thymus index was calculated according to: thymus index=thymus weight (mg)/body weight (g).
# PACAP = assay: Level of PACAP in serum of mice after intraperitoneal injection (ELISA kit); assay type: in vivo, BALb/c mice; conditions: SPAM1 10 and 100 μmol/kg intraperitoneal; blood 30 min after injection; vs normal saline control
# Experimental: Thirty BALb/c mice (SPF grade, 8-10 weeks old, weighing 22-27 g, half female and half male) were randomly divided into following […], with 10 mice in each group: 1) SPAM1 low-dose group, intraperitoneal injection, 10 μmol/kg; 2) SPAM1 high-dose group, intraperitoneal injection, 100 μmol/kg; 3) normal control group, injected with normal saline intraperitoneally; 30 min after the injection, blood was collected from the orbit, and serum was assayed for PACAP using an ELISA kit.
# [3] = system: D-galactose-induced aging model; assay: D-galactose-induced aging model, testicular decline: testosterone in serum (ELISA); assay type: in vivo, BALB/c male mice; conditions: male mice, D-galactose 200 mg/kg/d*42d; SPAM1 10 or 100 μmol/kg/d*28d i.p. from day 15; high dose more significant than low
# Experimental: (§1) A D-galactose-induced aging model was used. Forty BALB/c male mice (SPF grade, 8-10 weeks old, weighing 22-27 g) were randomly divided into following 4 groups, with 10 mice in each group: 1) aging model group, injected with D-galactose (200 mg/kg/d*42d) subcutaneously at the neck or back; 2) SPAM1 low-dose treatment group, injected with D-galactose as in group 1), and injected with low-dose SPAM1 (10 μmol/kg/d*28d) intraperitoneally on day 15; 3) SPAM1 high-dose treatment group, injected with D-galactose as in group 1), and injected with high-dose SPAM1 (100 μmol/kg/d*28d) intraperitoneally on day 15; and 4) normal control group, injected with normal saline intraperitoneally instead of D-galactose and SPAM1; 24 h after all injections, blood was collected from the orbit, and the level of testosterone in serum was assayed by the enzyme-linked immunosorbent assay (ELISA).
# [4] = system: D-galactose-induced aging model; assay: D-galactose-induced aging model, ovarian decline: estradiol and luteinizing hormone in serum (ELISA); assay type: in vivo, BALB/c female mice; conditions: female mice, D-galactose 200 mg/kg/d*42d; SPAM1 10 or 100 μmol/kg/d*28d i.p. from day 15; high dose more significant than low
# Experimental: as §1, with “female” for “male”, “after the completion of” for “after”, “estradiol and luteinizing hormone” for “testosterone”
# PAC1-R [5] = assay: PAC1-R expression in SHSY-5Y cells, confocal immunofluorescence; assay type: cell-based, Human; conditions: 100 μM SPAM1, incubated 1 h
# Experimental: Human nerve cells SHSY-5Y naturally expressing the PAC1-R were cultured until the fusion rate was more than 80%, added with 100 μM SPAM1, and observed by confocal immunofluorescence after being incubated for 1 h.
# [6] = cited from earlier work
compound,measurement,setting,value
O=C(CCCc1nc2ccccc2c(=O)[nH]1)NCc1ccc(C(=O)O)cc1,level of COR in serum,corticosterone,increased the level of COR in a concentration-dependent manner
same,death rate / survival rate in LPS-induced sepsis,LPS-induced sepsis model,effectively inhibited death caused by LPS-induced sepsis
same,expression of PAC1-R in nerve cells Neuro2a (western blot),PAC1-R [1],up-regulated the expression of PAC1-R in nerve cells in a concentration-dependent manner
same,thymus index (thymus weight (mg)/body weight (g)),[2],effectively inhibited the dexamethasone-induced down-regulation of thymus index
same,level of PACAP in serum,PACAP,effectively up-regulated the level of PACAP in serum and the up-regulation was concentration-dependent
same,level of testosterone in serum of aging mice,[3],effectively up-regulated
same,level of estradiol in serum of aging mice,[4],effectively up-regulated
same,level of luteinizing hormone in serum of aging mice,[4],effectively up-regulated
same,red fluorescent signal targeting PAC1-R in SHSY-5Y cells,PAC1-R [5],significantly up-regulated
PACAP38,in vivo half-life,[6],less than 2 min

# From patent publication US20250236595A1 (priority 2020, published 2025)
